According to article PMC9120017, “Inhibition mechanism of the chloride channel TMEM16A by the pore blocker 1PBC” (Nature Communications, 2022):
Like-named read-outs stand apart in the source and are kept apart here.

Molecular target: T1, wild-type mouse TMEM16A (Mus musculus, UniProt Q8BHY3)
T1 construct: expressed in transfected cells; host or cells: HEK293T
T1 sequence (Q8BHY3 1-960): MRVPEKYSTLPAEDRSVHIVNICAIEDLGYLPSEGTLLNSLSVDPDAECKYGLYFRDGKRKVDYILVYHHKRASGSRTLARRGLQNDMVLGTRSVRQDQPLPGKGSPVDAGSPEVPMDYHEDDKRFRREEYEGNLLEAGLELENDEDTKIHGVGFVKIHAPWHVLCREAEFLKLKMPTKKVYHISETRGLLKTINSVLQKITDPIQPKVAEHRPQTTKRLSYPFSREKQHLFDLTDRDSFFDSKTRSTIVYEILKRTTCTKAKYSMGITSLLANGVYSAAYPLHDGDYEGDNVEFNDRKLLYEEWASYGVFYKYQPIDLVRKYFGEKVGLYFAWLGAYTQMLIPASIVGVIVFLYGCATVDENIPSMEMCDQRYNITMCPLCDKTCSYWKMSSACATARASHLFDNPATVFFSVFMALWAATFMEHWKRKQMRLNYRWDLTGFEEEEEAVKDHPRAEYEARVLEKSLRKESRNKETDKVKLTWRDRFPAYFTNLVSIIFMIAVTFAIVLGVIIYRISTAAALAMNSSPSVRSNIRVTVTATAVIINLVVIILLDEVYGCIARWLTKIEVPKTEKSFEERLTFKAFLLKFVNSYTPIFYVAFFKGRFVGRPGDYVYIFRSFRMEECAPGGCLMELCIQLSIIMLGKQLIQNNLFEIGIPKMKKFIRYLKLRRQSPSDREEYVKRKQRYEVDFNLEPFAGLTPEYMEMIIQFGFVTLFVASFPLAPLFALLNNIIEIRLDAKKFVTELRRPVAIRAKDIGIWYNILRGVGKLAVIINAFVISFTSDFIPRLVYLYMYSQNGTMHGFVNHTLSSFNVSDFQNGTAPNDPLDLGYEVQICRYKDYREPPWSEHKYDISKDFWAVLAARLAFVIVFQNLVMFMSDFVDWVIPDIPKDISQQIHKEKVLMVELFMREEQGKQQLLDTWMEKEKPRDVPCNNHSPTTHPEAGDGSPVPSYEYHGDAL
Assay: Inside-out patch recording of 1PBC block, wild-type TMEM16A
Type: cell-based
Conditions: for remaining activity at 3 µM / remaining activity at 10 µM: read-out: I/Imax
Method: HEK293T cells (ATCC CRL-1573) were maintained in Dulbecco’s modified Eagle’s medium (DMEM; Sigma-Aldrich) supplemented with 10 U ml^−1 penicillin, 0.1 mg ml^−1 streptomycin (Sigma-Aldrich), 2 mM L-glutamine (Sigma-Aldrich), and 10% FBS (Sigma-Aldrich) in a humidified atmosphere containing 5% CO2 at 37 °C. HEK293S GnTI^− cells (ATCC CRL-3022) were maintained in HyClone HyCell TransFx-H medium (GE Healthcare) supplemented with 10 U ml^−1 penicillin, 0.1 mg ml^−1 streptomycin, 4 mM L-glutamine, 0.15% poloxamer 188 (Sigma-Aldrich), and 1% FBS in an atmosphere containing 5% CO2 at 185 rpm at 37 °C. The ac splice variant of mouse TMEM16A (UniProt ID: Q8BHY3), mouse TMEM16B (UniProt ID: Q8CFW1), or mouse TMEM16F (UniProt ID: Q6P9J9) bearing a 3C cleavage site, a Venus YFP, a Myc tag, and a Streptavidin-binding peptide (SBP) downstream of the open reading frame in a modified pcDNA3.1 vector (Invitrogen) were used as described previously[21],[31]. Mutations were introduced using a modified QuikChange method[58] and were verified by sequencing.
HEK293T cells were transfected with 3–4 μg DNA per 6 cm Petri dish using the calcium phosphate co-precipitation method and were used within 24–96 h after transfection. Recordings were performed on inside-out patches excised from HEK293T cells expressing the construct of interest. Patch pipettes were pulled from borosilicate glass capillaries (O.D. 1.5 mm, I.D. 0.86 mm, Sutter Instrument) and were fire-polished with a microforge (Narishige) before use. Pipette resistance was typically 3–8 MΩ when filled with the recording solutions detailed below. Seal resistance was typically 4 GΩ or higher. Voltage-clamp recordings were made using Axopatch 200B, Digidata 1550, and Clampex 10.7 (Molecular Devices). Analog signals were filtered with the in-built 4-pole Bessel filter at 10 kHz and were digitized at 20 kHz. Solution exchange was achieved using a gravity-fed system through a theta glass pipette mounted on an ultra-fast piezo-driven stepper (Siskiyou). […] All recordings were performed at 20 °C.
A symmetrical ionic condition was used throughout. Stock solution with Ca^2+-EGTA contained 150 mM NaCl, 5.99 mM Ca(OH)2, 5 mM EGTA, and 10 mM HEPES at pH 7.40. Stock solution with EGTA contained 150 mM NaCl, 5 mM EGTA, and 10 mM HEPES at pH 7.40. Free Ca^2+ concentrations were adjusted by mixing the stock solutions at the required ratios calculated using the WEBMAXC program (http://web.stanford.edu/~cpatton/webmaxcS.htm). Patch pipettes were filled with the stock solution with Ca^2+-EGTA, which has a free Ca^2+ concentration of 1 mM. 1PBC (ChemBridge) stock was reconstituted in anhydrous DMSO (Sigma-Aldrich) at 100 mM and stored at −20 °C. Working solutions with 1PBC were prepared by serial dilution. Unless otherwise stated, experiments were performed at a saturating Ca^2+ concentration as shown in Supplementary Table 1 and the primary data were corrected for current rundown as described previously[21],[25].
Concentration-response relations, obtained from the ratio of the I-V plots before and after the application of the blocker, were fitted to the Hill equation,1 I/Imax=1/1+IC50/[blocker]^h where I/Imax is the normalized current responses, IC50 defines the concentration at which inhibition is at its half-maximum, and h is the Hill coefficient.

N#Cc1c(C(F)(F)F)cc(O)n2c1nc1ccccc12 [1PBC]
Steady-state current (normalized) (3 µM 1PBC, 60 mV, 2 µM Ca2+): 0.2233 | remaining activity at 3 µM (3 µM 1PBC, 60 mV, 2 µM Ca2+): 40.5% | Steady-state current (normalized) (3 µM 1PBC, 80 mV, 2 µM Ca2+): 0.2697 | remaining activity at 3 µM (3 µM 1PBC, 80 mV, 2 µM Ca2+): 38.1% | Steady-state current (normalized) (3 µM 1PBC, 100 mV, 2 µM Ca2+): 0.3173 | remaining activity at 3 µM (3 µM 1PBC, 100 mV, 2 µM Ca2+): 37.3% | Steady-state current (normalized) (3 µM 1PBC, 120 mV, 2 µM Ca2+): 0.3753 | remaining activity at 3 µM (3 µM 1PBC, 120 mV, 2 µM Ca2+): 38.6% | Steady-state current (normalized) (3 µM 1PBC, 140 mV, 2 µM Ca2+): 0.4543 | remaining activity at 3 µM (3 µM 1PBC, 140 mV, 2 µM Ca2+): 41.8% | Steady-state current (normalized) (3 µM 1PBC, -20 mV, 2 µM Ca2+): -0.1133 | remaining activity at 3 µM (3 µM 1PBC, -20 mV, 2 µM Ca2+): 58.9% | Steady-state current (normalized) (3 µM 1PBC, -40 mV, 2 µM Ca2+): -0.2482 | remaining activity at 3 µM (3 µM 1PBC, -40 mV, 2 µM Ca2+): 63.9% | Steady-state current (normalized) (3 µM 1PBC, -60 mV, 2 µM Ca2+): -0.3977 | remaining activity at 3 µM (3 µM 1PBC, -60 mV, 2 µM Ca2+): 68.6% | Steady-state current (normalized) (3 µM 1PBC, -80 mV, 2 µM Ca2+): -0.557 | remaining activity at 3 µM (3 µM 1PBC, -80 mV, 2 µM Ca2+): 72.6% | Steady-state current (normalized) (3 µM 1PBC, -100 mV, 2 µM Ca2+): -0.718 | remaining activity at 3 µM (3 µM 1PBC, -100 mV, 2 µM Ca2+): 75.6% | Steady-state current (normalized) (3 µM 1PBC, -120 mV, 2 µM Ca2+): -0.8735 | remaining activity at 3 µM (3 µM 1PBC, -120 mV, 2 µM Ca2+): 78.1% | Steady-state current (normalized) (3 µM 1PBC, -140 mV, 2 µM Ca2+): -1.031 | remaining activity at 3 µM (3 µM 1PBC, -140 mV, 2 µM Ca2+): 80.3% | Steady-state current (normalized) (10 µM 1PBC, 0 mV, 2 µM Ca2+): 0.0007397 | remaining activity at 10 µM (10 µM 1PBC, 0 mV, 2 µM Ca2+): 30.3% | I/Imax scaled to open probability (10 µM 1PBC, 400 nM Ca2+, 80 mV): 0.1226 | I/Imax scaled to open probability (10 µM 1PBC, 800 nM Ca2+, 80 mV): 0.1094 | I/Imax scaled to open probability (10 µM 1PBC, 2 µM Ca2+, 80 mV): 0.1474 | Steady-state current (normalized) (10 µM 1PBC, 20 mV, 2 µM Ca2+): 0.04925 | remaining activity at 10 µM (10 µM 1PBC, 20 mV, 2 µM Ca2+): 25.3% | Steady-state current (normalized) (10 µM 1PBC, 40 mV, 2 µM Ca2+): 0.08188 | remaining activity at 10 µM (10 µM 1PBC, 40 mV, 2 µM Ca2+): 21.7% | Steady-state current (normalized) (10 µM 1PBC, 60 mV, 2 µM Ca2+): 0.1024 | remaining activity at 10 µM (10 µM 1PBC, 60 mV, 2 µM Ca2+): 18.6% | Steady-state current (normalized) (10 µM 1PBC, 80 mV, 2 µM Ca2+): 0.1202 | remaining activity at 10 µM (10 µM 1PBC, 80 mV, 2 µM Ca2+): 17% | Steady-state current (normalized) (10 µM 1PBC, 100 mV, 2 µM Ca2+): 0.1383 | remaining activity at 10 µM (10 µM 1PBC, 100 mV, 2 µM Ca2+): 16.3% | Steady-state current (normalized) (10 µM 1PBC, 120 mV, 2 µM Ca2+): 0.1588 | remaining activity at 10 µM (10 µM 1PBC, 120 mV, 2 µM Ca2+): 16.3% | Steady-state current (normalized) (10 µM 1PBC, 140 mV, 2 µM Ca2+): 0.1862 | remaining activity at 10 µM (10 µM 1PBC, 140 mV, 2 µM Ca2+): 17.1% | Steady-state current (normalized) (10 µM 1PBC, -20 mV, 2 µM Ca2+): -0.06795 | remaining activity at 10 µM (10 µM 1PBC, -20 mV, 2 µM Ca2+): 35.3% | Steady-state current (normalized) (10 µM 1PBC, -40 mV, 2 µM Ca2+): -0.1586 | remaining activity at 10 µM (10 µM 1PBC, -40 mV, 2 µM Ca2+): 40.9%
